According to article PMC7024391, “Trypanocidal Activity of Flavanone Derivatives” (Molecules, 2020):

Experiments:
[1] = system: Trypanosoma cruzi (amastigotes and trypomastigotes), Tulahuen strain; assay: Anti-Trypanosoma cruzi activity assay (amastigotes and trypomastigotes) in infected L929 cells, beta-galactosidase reporter; type: cell-based; details: 96 h incubation; for IC50: Trypanosoma cruzi, ± 0.2, read-out: Trypanocide IC50(μM) ± 0.2
Method: Flavanone derivatives were evaluated for anti-T. cruzi activity against the intracellular forms of the parasite. Although the use of epimastigotes present in the midgut vector may be utilized for initial screening, we have instead opted for the simultaneous use of trypomastigote and intracellular amastigotes forms that are present during both acute and chronic phases of the disease. This approach is in accordance with the Drugs for Neglected Diseases Initiative guidelines (DNDi). Moreover, it also has the advantage of evaluating bioactive compounds in infected cells while at the same time monitoring their effects on both the relevant forms of the parasite in the same system. Benznidazole was used as a positive control against T. cruzi and cytotoxicity was determined in mammalian L929 cells (Table 1). The bioavailability profile of the flavanones was evaluated by applying the Lipinski rule and data related to the risk of toxicity (mutagenicity, tumorigenicity, irritability, and effects on the reproductive system) carried out through online programs “Molinspiration” and “OSIRIS property explorer” (Table 1). […] Nevertheless, this preliminary result motivated us to investigate other analogs bearing substituents in order to improve potency and selectivity. […] Moreover, the selectivity of 2d was almost 4 times greater than 2a. The importance of methoxy substituents for trypanocidal activity has been noted in other studies. […] These compounds resembled more closely the chemical structure of the trypanocidal natural product (brevifolin carboxylate) that these structures were based on. Some enhancement in the trypanocidal activity of hybrid coumarin-chalcone compounds was also noted when the methoxy groups were introduced into either the 2 or 5 positions of the benzene ring. The inclusion of a pyridine moiety in compound 2e was supported by previous reports describing the anti-T. cruzi activity of 2-pyridyl derivatives and their capacity to inhibit cruzain catalytic activity. […] No improvements in anti-T. cruzi activity were also observed for flavanones substituted at the benzoyl moiety (2g–2o and 2v–2x). […] The physicochemical drug descriptors of the molecular properties for the synthesized compounds were calculated by Molinspiration software (Table 1). The majority of the tested compounds satisfy the Lipinski rule with no violations and therefore displaying potentially good bioavailability. There were no linear correlations observed between molecular hydrophobicity and bioactivity.
The in vitro anti-T. cruzi activity was evaluated on L929 cells (mouse fibroblasts) infected with Tulahuen strain of the parasite expressing the Escherichia coli β-galactosidase as reporter gene. Briefly, for the bioassay, 4000 L929 cells were added to each well of a 96-well microtiter plate. After an overnight incubation, 40,000 trypomastigotes were added to the cells and incubated for 2 h. Then, the medium containing extracellular parasites were replaced with 200 μL of fresh medium and the plate was incubated for an additional 48 h to establish the infection. For IC50 determination, the cells were exposed to each synthesized compound at serial decreasing dilutions and the plate was incubated for 96 h. After this period, 50 μL of 500 μM chlorophenol red beta-D-galactopyranoside (CPRG) in 0.5% Nonidet P40 was added to each well, and the plate was incubated for 16–20 h, after which the absorbance at 570 nm was measured. Controls with uninfected cells, untreated infected cells, infected cells treated with Benznidazole at 3.8 μM (positive control) or DMSO 1% were used. The results were expressed as the percentage of T. cruzi growth inhibition in compound-tested cells as compared to the infected cells and untreated cells. The IC50 values were calculated by linear interpolation. Quadruplicates were run in the same plate, and the experiments were repeated at least once.

[2] = In vitro cytotoxic test on uninfected L-929 cells (alamarBlue); type: cell-based, mouse; details: mouse, uninfected L-929 cells; mammalian L929 cells, 96 h, alamarBlue; ± 2.0; read-out: Cytotoxicity CC50(μM) ± 2.0
Method: (§1) The active compounds were tested in vitro for determination of cellular toxicity against uninfected L-929 cells using the alamarBlue® dye. The cells were exposed to compounds at increasing concentrations starting at IC50 value for T. cruzi. After 96 h of incubation with the tested compounds, the alamarBlue® was added and the absorbance at 570 and 600 nm measured after 4–6 h. The cell viability was expressed as the percentage of difference in the reduction between treated and untreated cells. IC50 values were calculated by linear interpolation, and the selectivity index (SI) was determined based on the ratio of the IC50 value in the host cell divided by the IC50 value of the parasite. Quadruplicates were run in the same plate, and the experiments were repeated at least once.

L929 cells = assay: as above; type: cell-based, mouse; details: CC50 L929 / IC50 T. cruzi
Method: as §1

SMILES: COc1ccc2c(c1)C(=O)[C@@H](C(=O)c1ccccc1)[C@H](c1ccccc1)O2 (relative stereo) [Compound 2p, trans-3-benzoyl-6-methoxy-2-phenylchroman-4-one]
- Trypanocide IC50(μM) ± 0.2 [1]: Inactive

SMILES: COc1ccc(C(=O)[C@@H]2C(=O)c3ccccc3O[C@H]2c2ccc(OC)cc2)cc1 (relative stereo) [Compound 2m, trans-3-(4-methoxybenzoyl)-2-(4-methoxyphenyl)chroman-4-one]
- IC50 [1]: 37.4 µM
- CC50 at 96 h [2]: 103 µM
- SI (selectivity index calculated from CC50/IC50) (L929 cells): 2.8

SMILES: Cc1ccc(C(=O)[C@@H]2C(=O)c3ccccc3O[C@H]2c2ccccc2)cc1 (relative stereo) [Compound 2g, trans-3-(4-methylbenzoyl)-2-phenylchroman-4-one]
- Trypanocide IC50(μM) ± 0.2 [1]: Inactive

SMILES: O=C(c1ccccc1)[C@@H]1C(=O)c2ccccc2O[C@H]1c1ccccn1 (relative stereo) [Compound 2e, trans-3-benzoyl-2-(pyridin-2-yl)chroman-4-one]
- IC50 [1]: 184 µM
- CC50 at 96 h [2]: 243 µM
- SI (selectivity index calculated from CC50/IC50) (L929 cells): 1.3

SMILES: O=C(c1ccco1)[C@@H]1C(=O)c2ccccc2O[C@H]1c1ccc(F)cc1 (relative stereo) [Compound 2x, trans-2-(4-fluorophenyl)-3-(furan-2-carbonyl)chroman-4-one]
- Trypanocide IC50(μM) ± 0.2 [1]: Inactive

SMILES: O=C(c1ccccc1)[C@@H]1C(=O)c2ccccc2O[C@H]1c1ccccc1Cl (relative stereo) [Compound 2b, trans-3-benzoyl-2-(2-chlorophenyl)chroman-4-one]
- IC50 [1]: 10.7 µM
- CC50 at 96 h [2]: 442 µM
- SI (selectivity index calculated from CC50/IC50) (L929 cells): 40.3

SMILES: C[C@@H]1Oc2ccccc2C(=O)[C@H]1C(=O)c1ccccc1 (relative stereo) [Compound 3, trans-3-benzoyl-2-methylchroman-4-one]
- Trypanocide IC50(μM) ± 0.2 [1]: completely inactive

SMILES: O=C(c1ccccc1)[C@@H]1C(=O)c2ccccc2O[C@H]1c1ccc(F)cc1 (relative stereo) [Compound 2c, trans-3-benzoyl-2-(4-fluorophenyl)chroman-4-one]
- IC50 [1]: 21.9 µM
- CC50 at 96 h [2]: 231 µM
- SI (selectivity index calculated from CC50/IC50) (L929 cells): 10.5

SMILES: COc1ccc([C@@H]2Oc3ccccc3C(=O)[C@H]2C(=O)c2ccco2)cc1 (relative stereo) [Compound 2w, trans-3-(furan-2-carbonyl)-2-(4-methoxyphenyl)chroman-4-one]
- Trypanocide IC50(μM) ± 0.2 [1]: Inactive

SMILES: O=C(Cn1ccnc1[N+](=O)[O-])NCc1ccccc1 [Bnz, Benznidazole, reference compound]
- IC50 [1]: 3.8 µM
- SI (selectivity index calculated from CC50/IC50) (L929 cells): 625

SMILES: COc1ccc([C@@H]2Oc3ccccc3C(=O)[C@H]2C(=O)c2ccccc2)cc1 (relative stereo) [Compound 2d, trans-3-benzoyl-2-(4-methoxyphenyl)chroman-4-one]
- IC50 [1]: 5.8 µM
- CC50 at 96 h [2]: 223 µM
- SI (selectivity index calculated from CC50/IC50) (L929 cells): 38.5

SMILES: O=C(c1ccco1)[C@@H]1C(=O)c2ccccc2O[C@H]1c1ccccc1 (relative stereo) [Compound 2v, trans-3-(furan-2-carbonyl)-2-phenylchroman-4-one]
- Trypanocide IC50(μM) ± 0.2 [1]: Inactive

SMILES: COc1ccc(C(=O)[C@@H]2C(=O)c3ccccc3O[C@H]2c2ccccc2Cl)cc1 (relative stereo) [Compound 2o, trans-2-(2-chlorophenyl)-3-(4-methoxybenzoyl)chroman-4-one]
- IC50 [1]: 26.5 µM
- CC50 at 96 h [2]: 408 µM
- SI (selectivity index calculated from CC50/IC50) (L929 cells): 15.4

SMILES: COc1ccc([C@@H]2Oc3ccc(Cl)cc3C(=O)[C@H]2C(=O)c2ccccc2)cc1 (relative stereo) [Compound 2u, trans-3-benzoyl-6-chloro-2-(4-methoxyphenyl)chroman-4-one]
- IC50 [1]: 59.2 µM
- CC50 at 96 h [2]: 205 µM
- SI (selectivity index calculated from CC50/IC50) (L929 cells): 3.5

SMILES: COc1ccc2c(c1)C(=O)[C@@H](C(=O)c1ccccc1)[C@H](c1ccccc1Cl)O2 (relative stereo) [Compound 2s, trans-3-benzoyl-2-(2-chlorophenyl)-6-methoxychroman-4-one]
- IC50 [1]: 18.4 µM
- CC50 at 96 h [2]: 102 µM
- SI (selectivity index calculated from CC50/IC50) (L929 cells): 5.5

SMILES: CCC1(C(=O)c2ccccc2)C(=O)c2ccccc2OC1c1ccccc1 (stereo not drawn) [Compound 4, 3-Benzoyl-3-ethyl-2-phenylchroman-4-one]
- IC50 [1]: 13.2 µM
- CC50 at 96 h [2]: 449 µM
- SI (selectivity index calculated from CC50/IC50) (L929 cells): 34.03

SMILES: Cc1ccc(C(=O)[C@@H]2C(=O)c3ccccc3O[C@H]2c2ccc(F)cc2)cc1 (relative stereo) [Compound 2h, trans-2-(4-fluorophenyl)-3-(4-methylbenzoyl)chroman-4-one]
- IC50 [1]: 22.5 µM
- CC50 at 96 h [2]: 111 µM
- SI (selectivity index calculated from CC50/IC50) (L929 cells): 4.9

SMILES: O=C(c1ccccc1)[C@@H]1C(=O)c2cc(Cl)ccc2O[C@H]1c1ccccc1 (relative stereo) [Compound 2t, trans-3-benzoyl-6-chloro-2-phenylchroman-4-one]
- IC50 [1]: 23.2 µM
- CC50 at 96 h [2]: 221 µM
- SI (selectivity index calculated from CC50/IC50) (L929 cells): 9.5

SMILES: O=C(c1ccccc1)[C@@H]1C(=O)c2ccccc2O[C@H]1c1ccccc1 (relative stereo) [Compound 2a, trans-3-benzoyl-2-phenylchroman-4-one]
- IC50 [1]: 8.8 µM
- CC50 at 96 h [2]: 80 µM
- SI (selectivity index calculated from CC50/IC50) (L929 cells): 9.1

SMILES: COc1ccc([C@@H]2Oc3ccc(OC)cc3C(=O)[C@H]2C(=O)c2ccccc2)cc1 (relative stereo) [Compound 2q, trans-3-benzoyl-6-methoxy-2-(4-methoxyphenyl)chroman-4-one]
- IC50 [1]: 141 µM
- CC50 at 96 h [2]: 206 µM
- SI (selectivity index calculated from CC50/IC50) (L929 cells): 1.4

SMILES: O=C(c1ccccc1)[C@@H]1C(=O)c2ccccc2O[C@H]1c1ccco1 (relative stereo) [Compound 2y, trans-3-benzoyl-2-(furan-2-yl)chroman-4-one]
- IC50 [1]: 114 µM
- CC50 at 96 h [2]: 503 µM
- SI (selectivity index calculated from CC50/IC50) (L929 cells): 4.4

SMILES: COc1ccc(C(=O)[C@@H]2C(=O)c3ccccc3O[C@H]2c2ccc(F)cc2)cc1 (relative stereo) [Compound 2n, trans-2-(4-fluorophenyl)-3-(4-methoxybenzoyl)chroman-4-one]
- IC50 [1]: 213 µM

SMILES: O=C(c1ccccc1)[C@@H]1C(=O)c2ccccc2O[C@H]1c1ccc([N+](=O)[O-])o1 (relative stereo) [Compound 2z, trans-3-benzoyl-2-(5-nitrofuran-2-yl)chroman-4-one]
- IC50 [1]: 2.6 µM
- CC50 at 96 h [2]: 27.5 µM
- SI (selectivity index calculated from CC50/IC50) (L929 cells): 10.6

SMILES: Cc1ccc(C(=O)[C@@H]2C(=O)c3ccccc3O[C@H]2c2ccccc2Cl)cc1 (relative stereo) [Compound 2j, trans-2-(2-chlorophenyl)-3-(4-methylbenzoyl)chroman-4-one]
- IC50 [1]: 63 µM
- CC50 at 96 h [2]: 62.5 µM
- SI (selectivity index calculated from CC50/IC50) (L929 cells): 1

SMILES: c1ccc(-c2n[nH]c3c2C(c2ccccc2)Oc2ccccc2-3)cc1 (stereo not drawn) [Compound 5, 3,4-diphenyl-1,4-dihydrochromeno[4,3-c]pyrazole]
- IC50 [1]: 8.3 µM
- CC50 at 96 h [2]: 38.6 µM
- SI (selectivity index calculated from CC50/IC50) (L929 cells): 4.6

SMILES: COc1ccc2c(c1)C(=O)[C@@H](C(=O)c1ccccc1)[C@H](c1ccc(F)cc1)O2 (relative stereo) [Compound 2r, trans-3-benzoyl-2-(4-fluorophenyl)-6-methoxychroman-4-one]
- IC50 [1]: 17.6 µM
- CC50 at 96 h [2]: 106 µM
- SI (selectivity index calculated from CC50/IC50) (L929 cells): 6.1
